Results: ChEMBL document CHEMBL4052775, “Design, synthesis and in vitro anti-mycobacterial evaluation of gatifloxacin-1H-1,2,3-triazole-isatin hybrids” (Bioorg Med Chem Lett, 2017)
≈ marks a conversion by molar mass, not a printed value.

tested on: Mycobacterium tuberculosis; experiment: Antimycobacterial activity against isoniazid/rifampicin/ethambutol-resistant Mycobacterium tuberculosis 09710 by two fold dilution method; format: functional

Compound | MIC
COc1c(N2CCNC(C)C2)c(F)cc2c(=O)c(C(=O)O)cn(C3CC3)c12 (stereo not drawn) [GATIFLOXACIN] | 1 µg/mL (≈ 2.66 µM)
CO[C@H]1/C=C/O[C@@]2(C)Oc3c(C)c(O)c4c(O)c(c(/C=N/N5CCN(C)CC5)c(O)c4c3C2=O)NC(=O)/C(C)=C\C=C\[C@H](C)[C@H](O)[C@@H](C)[C@@H](O)[C@@H](C)[C@H](OC(C)=O)[C@@H]1C [RIFAMPIN] | 32 µg/mL (≈ 38.9 µM)
NNC(=O)c1ccncc1 [ISONIAZID] | > 128 µg/mL
